Data set [1] relates to phencyclidine-induced social interaction deficits. The following applies: background statement on prior-art compounds; cited from earlier work.

The values below come from US20140296528A1, “4-ARYL-1-(BIARYLMETHYLENE) PIPERIDINE COMPOUNDS” (KING ABDULAZIZ CITY FOR SCIENCE AND TECHNOLOGY, priority 2013, published 2014).

For `COc1ccc2cccc(C3CCN(Cc4ccc(-c5ccccc5)cc4)CC3)c2n1` [Compound 3a, 8-(1-(Biphenyl-4-ylmethyl)piperidin-4-yl)-2-methoxyquinoline], the melting point lay within 84 to 85 °C.
The molecule `COc1ccc2cccc(C3CCN(Cc4cncc(-c5ccccc5)c4)CC3)c2n1` [Compound 3c, 2-Methoxy-8-(1-((5-phenylpyridin-3-yl)methyl)piperidin-4-yl)quinoline] displayed a melting point of 135 to 137 °C.
Molecule `COc1ccc2cccc(C3CCN(Cc4cncc(-c5ccc(F)cc5)c4)CC3)c2n1` [Compound 3d, 8-(1-((5-(4-Fluorophenyl)pyridin-3-yl)methyl)piperidin-4-yl)-2-methoxyquinoline] displayed a melting point of 156 to 158 °C.
In turn, `COc1ccc2cccc(C3CCN(Cc4cccc(C5=CCCC5)c4)CC3)c2n1` [Compound 3e, 8-(1-(3-Cyclopentenylbenzyl)piperidin-4-yl)-2-methoxyquinoline] registered a melting point of 125 to 126 °C.
The same measure, in the same setting: to `O=c1ccc2cccc(C3CCN(Cc4ccc(-c5ccccc5)cc4)CC3)c2[nH]1` [Compound 4a, 8-(1-(Biphenyl-4-ylmethyl)piperidin-4-yl)quinolin-2(1H)-one] belongs 146 to 148 °C.
For the molecule `O=c1ccc2cccc(C3CCN(Cc4ccc(-c5ccc(F)cc5)cc4)CC3)c2[nH]1` [Compound 4b, 8-(1-((4′-Fluorobiphenyl-4-yl)methyl)piperidin-4-yl)quinolin-2(1H)-one], the melting point is 159 to 161 °C.
The molecule `O=c1ccc2cccc(C3CCN(Cc4cncc(-c5ccccc5)c4)CC3)c2[nH]1` [Compound 4c, 8-(1-((5-Phenylpyridin-3-yl)methyl)piperidin-4-yl)quinolin-2(1H)-one] showed a melting point of 158 to 160 °C.
Turning to `O=c1ccc2cccc(C3CCN(Cc4cncc(-c5ccc(F)cc5)c4)CC3)c2[nH]1` [Compound 4d, 8-(1-((5-(4-Fluorophenyl)pyridin-3-yl)methyl)piperidin-4-yl)quinolin-2(1H)-one], the melting point fell in the range of 161 to 163 °C.
Still for that read-out and setting: the value for `O=c1ccc2cccc(C3CCN(Cc4cccc(C5=CCCC5)c4)CC3)c2[nH]1` [Compound 4e, 8-(1-(3-Cyclopentenylbenzyl)piperidin-4-yl)quinolin-2(1H)-one] was 123 to 125 °C; that for `O=c1ccc2cccc(C3CCN(Cc4cncc(C5=CCCC5)c4)CC3)c2[nH]1` [Compound 4f, 8-(1-((5-Cyclopentenylpyridin-3-yl)-methyl)piperidin-4-yl)quinolin-2(1H)-one] was 133 to 135 °C; that for `O=C1CCc2cccc(C3CCN(Cc4ccc(-c5ccccc5)cc4)CC3)c2N1` [Compound 5a, 8-(1-(Biphenyl-4-ylmethyl)piperidin-4-yl)-3,4-dihydroquinolin-2(1H)-one] was 116 to 118 °C.
For `O=C1CCc2cccc(C3CCN(Cc4ccc(-c5ccc(F)cc5)cc4)CC3)c2N1` [Compound 5b, 8-(1-((4′-Fluorobiphenyl-4-yl)methyl)piperidin-4-yl)-3,4-dihydroquinolin-2(1H)-one], the melting point was 132 to 134 °C.
In the case of `O=C1CCc2cccc(C3CCN(Cc4cncc(-c5ccc(F)cc5)c4)CC3)c2N1` [Compound 5d, 8-(1-((5-(4-Fluorophenyl)pyridin-3-yl)methyl)piperidin-4-yl)-3,4-dihydroquinolin-2(1H)-one], the melting point is 136 to 138 °C.
For the molecule `O=C1CCc2cccc(C3CCN(Cc4cccc(C5=CCCC5)c4)CC3)c2N1` [Compound 5e, 8-(1-(3-Cyclopentenylbenzyl)piperidin-4-yl)-3,4-dihydroquinolin-2(1H)-one], the melting point is 115 to 117 °C.
Still for that read-out and setting: the value for `O=C1CCc2cccc(C3CCN(Cc4cncc(C5=CCCC5)c4)CC3)c2N1` [Compound 5f, 8-(1-((5-cyclopentenylpyridin-3-yl)methyl)piperidin-4-yl)-3,4-dihydroquinolin-2(1H)-one] was 123 to 125 °C.
Regarding `Fc1ccc(-c2cncc(CN3CCN(c4cccc5c4OCCO5)CC3)c2)cc1` [adoprazine], the “oppose phencyclidine-induced social interaction deficits” value in data set [1] is reported as “failure”.
As for `O=c1[nH]c2cccc(N3CCN(Cc4cccc(-c5ccccc5)c4)CC3)c2o1` [bifeprunox], the “oppose phencyclidine-induced social interaction deficits” value in data set [1] is recorded as “failure”.

For orientation: melting point means the temperature of the solid-liquid transition.
